Assay results reported in ChEMBL document CHEMBL5303573, “Mapping human microbiome drug metabolism by gut bacteria and their genes” (Nature, 2019).

Columns and labels:
[1] = The drug is tested on Proteus penneri strain: ATCC35198 for biotransformation. The drug concentrations were measured before and after a 12-h incubation by liquid-chromatography-coupled mass spectrometry (LC–MS); details: 2 µM
[2] = biological target: T1, 3-oxo-5-alpha-steroid 4-dehydrogenase (Bacteroides thetaiotaomicron, UniProt Q8A618); assay: The drug is tested on Bacteroides thetaiotaomicron strain: VPI-5482 for biotransformation. The drug concentrations were measured before and after a 12-h incubation by liquid-chromatography-coupled mass spectrometry (LC–MS); assay type: ADME; design: dose 2 uM; details: 2 µM
T1 sequence (Q8A618 whole entry): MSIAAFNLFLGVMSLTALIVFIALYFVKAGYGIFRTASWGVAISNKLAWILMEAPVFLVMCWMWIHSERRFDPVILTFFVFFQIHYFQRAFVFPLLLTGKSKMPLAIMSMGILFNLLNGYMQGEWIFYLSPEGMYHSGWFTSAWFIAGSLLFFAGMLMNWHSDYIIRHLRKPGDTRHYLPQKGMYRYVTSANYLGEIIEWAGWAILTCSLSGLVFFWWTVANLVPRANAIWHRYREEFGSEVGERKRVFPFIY

[3] = (§1) The drug is tested on the gut metagenome community of MV25 with ENA study accession number: PRJEB31790 and ENA sample accession number: SAMEA5537506 for biotransformation. The drug concentrations were measured over 9 timepoints collected between 0 and 24 hours of incubation by liquid-chromatography-coupled mass spectrometry (LC–MS); assay type: ADME; design: dose 2 uM, timepoint 0, 1, 2, 4, 6, 8, 12, 18, 24 hours; details: 2 µM
[4] = as §1, with “MV04” for “MV25”, “SAMEA5537485” for “SAMEA5537506”; assay type: ADME; design: dose 2 uM, timepoint 0, 1, 2, 4, 6, 8, 12, 18, 24 hours; details: 2 µM
[5] = as §1, with “MV13” for “MV25”, “SAMEA5537494” for “SAMEA5537506”; assay type: ADME; design: dose 2 uM, timepoint 0, 1, 2, 4, 6, 8, 12, 18, 24 hours; details: 2 µM
[6] = as §1, with “MV01” for “MV25”, “SAMEA5537482” for “SAMEA5537506”; assay type: ADME; design: dose 2 uM, timepoint 0, 1, 2, 4, 6, 8, 12, 18, 24 hours; details: 2 µM
[7] = as §1, with “MV18” for “MV25”, “SAMEA5537499” for “SAMEA5537506”; assay type: ADME; design: dose 2 uM, timepoint 0, 1, 2, 4, 6, 8, 12, 18, 24 hours; details: 2 µM
[8] = as §1, with “MV12” for “MV25”, “SAMEA5537493” for “SAMEA5537506”; assay type: ADME; design: dose 2 uM, timepoint 0, 1, 2, 4, 6, 8, 12, 18, 24 hours; details: 2 µM
[9] = as §1, with “MV07” for “MV25”, “SAMEA5537488” for “SAMEA5537506”; assay type: ADME; design: dose 2 uM, timepoint 0, 1, 2, 4, 6, 8, 12, 18, 24 hours; details: 2 µM
[10] = as §1, with “MV17” for “MV25”, “SAMEA5537498” for “SAMEA5537506”; assay type: ADME; design: dose 2 uM, timepoint 0, 1, 2, 4, 6, 8, 12, 18, 24 hours; details: 2 µM
[11] = as §1, with “MV26” for “MV25”, “SAMEA5537507” for “SAMEA5537506”; assay type: ADME; design: dose 2 uM, timepoint 0, 1, 2, 4, 6, 8, 12, 18, 24 hours; details: 2 µM
[12] = as §1, with “MV23” for “MV25”, “SAMEA5537504” for “SAMEA5537506”; assay type: ADME; design: dose 2 uM, timepoint 0, 1, 2, 4, 6, 8, 12, 18, 24 hours; details: 2 µM
[13] = as §1, with “MV19” for “MV25”, “SAMEA5537500” for “SAMEA5537506”; assay type: ADME; design: dose 2 uM, timepoint 0, 1, 2, 4, 6, 8, 12, 18, 24 hours; details: 2 µM
[14] = as §1, with “MV11” for “MV25”, “SAMEA5537492” for “SAMEA5537506”; assay type: ADME; design: dose 2 uM, timepoint 0, 1, 2, 4, 6, 8, 12, 18, 24 hours; details: 2 µM
[15] = biological target: T2, SGNH hydrolase-type esterase domain-containing protein (Phocaeicola dorei, UniProt B6VTE7); assay: (§2) The drug is tested on Bacteroides dorei strain: DSM17855 for biotransformation. The drug concentrations were measured before and after a 12-h incubation by liquid-chromatography-coupled mass spectrometry (LC–MS); assay type: ADME; design: dose 2 uM; details: 2 µM
T2 sequence (B6VTE7 whole entry): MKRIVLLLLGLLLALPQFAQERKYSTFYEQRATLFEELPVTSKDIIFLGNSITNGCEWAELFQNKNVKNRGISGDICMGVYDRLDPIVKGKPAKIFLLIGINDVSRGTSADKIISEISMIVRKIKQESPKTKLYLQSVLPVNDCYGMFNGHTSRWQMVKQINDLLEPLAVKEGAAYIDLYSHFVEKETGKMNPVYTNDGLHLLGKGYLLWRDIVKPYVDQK

[16] = biological target: T3, SGNH hydrolase-type esterase domain-containing protein (Phocaeicola dorei, UniProt B6W293); assay: as §2; assay type: ADME; design: dose 2 uM; details: 2 µM
T3 sequence (B6W293 whole entry): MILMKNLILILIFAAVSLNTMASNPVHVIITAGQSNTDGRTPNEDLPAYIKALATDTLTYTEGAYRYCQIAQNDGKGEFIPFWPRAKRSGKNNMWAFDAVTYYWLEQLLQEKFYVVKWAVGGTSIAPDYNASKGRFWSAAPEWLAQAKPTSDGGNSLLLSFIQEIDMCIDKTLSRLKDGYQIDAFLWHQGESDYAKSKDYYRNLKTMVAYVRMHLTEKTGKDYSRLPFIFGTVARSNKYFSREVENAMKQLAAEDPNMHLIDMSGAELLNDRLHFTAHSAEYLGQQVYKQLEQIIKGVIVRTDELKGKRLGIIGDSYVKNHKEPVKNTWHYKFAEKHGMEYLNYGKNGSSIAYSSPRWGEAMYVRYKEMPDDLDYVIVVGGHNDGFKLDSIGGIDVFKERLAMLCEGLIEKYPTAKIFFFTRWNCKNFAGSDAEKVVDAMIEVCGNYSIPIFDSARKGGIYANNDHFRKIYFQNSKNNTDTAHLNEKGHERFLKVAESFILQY

[17] = biological target: T4, SGNH hydrolase-type esterase domain-containing protein (Phocaeicola dorei, UniProt B6W1J1); assay: as §2; assay type: ADME; design: dose 2 uM; details: 2 µM
T4 sequence (B6W1J1 whole entry): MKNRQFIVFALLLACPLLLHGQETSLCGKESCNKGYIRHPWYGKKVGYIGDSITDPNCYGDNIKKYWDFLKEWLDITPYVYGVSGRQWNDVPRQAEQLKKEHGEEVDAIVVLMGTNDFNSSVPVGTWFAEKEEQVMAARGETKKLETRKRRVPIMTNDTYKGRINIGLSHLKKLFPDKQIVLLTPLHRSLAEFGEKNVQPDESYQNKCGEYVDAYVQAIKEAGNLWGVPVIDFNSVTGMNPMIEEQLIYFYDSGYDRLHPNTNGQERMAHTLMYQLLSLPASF

[18] = as §1, with “MV09” for “MV25”, “SAMEA5537490” for “SAMEA5537506”; assay type: ADME; design: dose 2 uM, timepoint 0, 1, 2, 4, 6, 8, 12, 18, 24 hours; details: 2 µM
[19] = as §1, with “MV10” for “MV25”, “SAMEA5537491” for “SAMEA5537506”; assay type: ADME; design: dose 2 uM, timepoint 0, 1, 2, 4, 6, 8, 12, 18, 24 hours; details: 2 µM
[20] = The drug is tested on Clostridium spiroforme strain: DSM1552 for biotransformation. The drug concentrations were measured before and after a 12-h incubation by liquid-chromatography-coupled mass spectrometry (LC–MS); details: thomasclavelia spiroformis, 2 µM

CN1[C@@H]2CC[C@H]1C[C@@H](OC(=O)C(CO)c1ccccc1)C2 (some centres undefined) [ATROPINE]
Bacterial Biotransformation [1]: Compound NOT metabolized

CC(=O)OCC(=O)[C@@]1(OC(C)=O)[C@@H](C)C[C@H]2[C@@H]3C[C@H](F)C4=CC(=O)C=C[C@]4(C)[C@@]3(F)[C@@H](O)C[C@@]21C [DIFLORASONE DIACETATE]
Bacterial Biotransformation [2]: Compound NOT metabolized

COc1ccc([C@@H]2Sc3ccccc3N(CCN(C)C)C(=O)[C@@H]2OC(C)=O)cc1 [DILTIAZEM]
Bacterial Biotransformation [3]: Compound NOT metabolized
Bacterial Biotransformation [4]: Compound NOT metabolized
Bacterial Biotransformation [5]: Compound NOT metabolized
Bacterial Biotransformation [6]: Compound NOT metabolized
Bacterial Biotransformation [7]: Compound NOT metabolized
Bacterial Biotransformation [8]: Compound NOT metabolized
Bacterial Biotransformation [9]: Compound NOT metabolized
Bacterial Biotransformation [2]: Compound NOT metabolized
Bacterial Biotransformation [10]: Compound NOT metabolized
Bacterial Biotransformation [11]: Compound NOT metabolized
Bacterial Biotransformation [12]: Compound NOT metabolized
Bacterial Biotransformation [13]: Compound NOT metabolized
Bacterial Biotransformation [14]: Compound NOT metabolized
Bacterial Biotransformation [15]: Compound NOT metabolized
Bacterial Biotransformation [16]: Compound NOT metabolized
Bacterial Biotransformation [17]: Compound NOT metabolized
Bacterial Biotransformation [18]: Compound NOT metabolized
Bacterial Biotransformation [19]: Compound NOT metabolized

CNCC[C@H](Oc1cccc2ccccc12)c1cccs1 [DULOXETINE]
Bacterial Biotransformation [20]: Compound NOT metabolized

CC(=O)OCC(CCn1cnc2cnc(N)nc21)COC(C)=O [FAMCICLOVIR]
Bacterial Biotransformation [3]: Compound metabolized
Bacterial Biotransformation [4]: Compound metabolized
Bacterial Biotransformation [5]: Compound metabolized
Bacterial Biotransformation [6]: Compound metabolized
Bacterial Biotransformation [7]: Compound metabolized
Bacterial Biotransformation [8]: Compound metabolized
Bacterial Biotransformation [9]: Compound metabolized
Bacterial Biotransformation [2]: Compound NOT metabolized
Bacterial Biotransformation [10]: Compound metabolized
Bacterial Biotransformation [11]: Compound metabolized
Bacterial Biotransformation [12]: Compound metabolized
Bacterial Biotransformation [13]: Compound NOT metabolized
Bacterial Biotransformation [14]: Compound metabolized
Bacterial Biotransformation [15]: Compound metabolized
Bacterial Biotransformation [16]: Compound metabolized
Bacterial Biotransformation [18]: Compound metabolized
Bacterial Biotransformation [19]: Compound metabolized

O=C(CCCN1CCC(O)(c2ccc(Cl)cc2)CC1)c1ccc(F)cc1 [HALOPERIDOL]
Bacterial Biotransformation [20]: Compound NOT metabolized
Bacterial Biotransformation [1]: Compound NOT metabolized

Cc1ccc(NC(=O)c2ccc(CN3CCN(C)CC3)cc2)cc1Nc1nccc(-c2cccnc2)n1 [IMATINIB]
Bacterial Biotransformation [20]: Compound NOT metabolized
Bacterial Biotransformation [1]: Compound NOT metabolized

CC1Cc2ccccc2N1NC(=O)c1ccc(Cl)c(S(N)(=O)=O)c1 (centres undefined) [INDAPAMIDE]
Bacterial Biotransformation [20]: Compound NOT metabolized

C#C[C@]1(O)CC[C@H]2[C@@H]3CCC4=CC(=O)CC[C@@H]4[C@H]3CC[C@@]21CC [LEVONORGESTREL]
Bacterial Biotransformation [2]: Compound metabolized
Bacterial Biotransformation [15]: Compound NOT metabolized
Bacterial Biotransformation [16]: Compound NOT metabolized
Bacterial Biotransformation [17]: Compound NOT metabolized

COC(=O)Nc1nc2ccc(C(=O)c3ccccc3)cc2[nH]1 [MEBENDAZOLE]
Bacterial Biotransformation [20]: Compound NOT metabolized
Bacterial Biotransformation [1]: Compound NOT metabolized

COc1ccc2cc([C@H](C)C(=O)O)ccc2c1 [NAPROXEN]
Bacterial Biotransformation [20]: Compound NOT metabolized

C#C[C@]1(OC(C)=O)CC[C@H]2[C@@H]3CCC4=CC(=O)CC[C@@H]4[C@H]3CC[C@@]21C [NORETHINDRONE ACETATE]
Bacterial Biotransformation [3]: Compound metabolized
Bacterial Biotransformation [4]: Compound metabolized
Bacterial Biotransformation [5]: Compound metabolized
Bacterial Biotransformation [6]: Compound metabolized
Bacterial Biotransformation [7]: Compound metabolized
Bacterial Biotransformation [8]: Compound metabolized
Bacterial Biotransformation [9]: Compound metabolized
Bacterial Biotransformation [2]: Compound metabolized
Bacterial Biotransformation [10]: Compound metabolized
Bacterial Biotransformation [11]: Compound metabolized
Bacterial Biotransformation [12]: Compound metabolized
Bacterial Biotransformation [13]: Compound NOT metabolized
Bacterial Biotransformation [14]: Compound metabolized
Bacterial Biotransformation [15]: Compound NOT metabolized
Bacterial Biotransformation [16]: Compound NOT metabolized
Bacterial Biotransformation [17]: Compound NOT metabolized
Bacterial Biotransformation [18]: Compound metabolized
Bacterial Biotransformation [19]: Compound metabolized

C#C[C@]1(OC(C)=O)CC[C@H]2[C@@H]3CCC4=C/C(=N/O)CC[C@@H]4[C@H]3CC[C@@]21CC [NORGESTIMATE]
Bacterial Biotransformation [20]: Compound NOT metabolized
Bacterial Biotransformation [1]: Compound NOT metabolized

N#Cc1ccc2c(c1)N(CCCN1CCC(O)CC1)c1ccccc1S2 [PERICIAZINE]
Bacterial Biotransformation [2]: Compound NOT metabolized
Bacterial Biotransformation [15]: Compound NOT metabolized
Bacterial Biotransformation [16]: Compound NOT metabolized
Bacterial Biotransformation [17]: Compound NOT metabolized
